Source: the supplement of paper PMC11208160

Assay: recombinant barcode read abundance after kanamycin selection (control-corrected) (log10(CPM+1)); higher = more efficient recombination; sequences stand for … in AGTGCAGAGAAAATCGGCCAGTTTTCTCTGCCTGCAGTCCGCATGCCGT…AGATTTATGCAGCGGACTGCCTTTCTCCCAAAGTGATAAACCGGACAGTATCATGGACCGGTTTTCCCGGTAATCCGTATTTGCAAGGTTGGTTTCACT; site = the 11-nt target
Summary of the method: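 Reported as log10(CPM+1), each value stands for recombination efficiency. That efficiency is the averaged, control-corrected counts per million of barcodes found at recombinant junctions. Cells from a pooled E. coli library pairing targets with IS621 bridge RNA target-binding loops were plated twice on chloramphenicol/ampicillin LB agar (control) and twice on chloramphenicol/ampicillin/kanamycin with 0.1 mM IPTG.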
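Also: IS621 recombinase and bridge RNA in Escherichia coli cells.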

Row | Sequence | recombinant barcode read abundance (log10)
1 | TGATCTCCTTGGGTTCTAACCTGTTGCTT (site TGATCTCCTAA) | 0.0107
2 | TGATCTCCTTGGGTTCTAACCTGTTGCTT (site TGATCTCCTAT) | 0.0466
3 | TGCCAGCCTTGGGTTCTAACCTGTTGCCT (site TGCCAGACTAT) | 0.114
4 | TGCCAGCCTTGGGTTCTAACCTGTTGCCT (site TGCCAGCCTAG) | 0.0668
5 | TGCCTATCTTGGGTTCTAACCTGTTGCCT (site TACCTATCTAG) | 0.234
6 | TGCCTATCTTGGGTTCTAACCTGTTGCCT (site TCCCTATCTAG) | 0.0417
7 | TGCCTATCTTGGGTTCTAACCTGTTGCCT (site TGCCTATCTAG) | 0.28
8 | TGCCTATCTTGGGTTCTAACCTGTTGCCT (site TTCCTATCTAG) | 0.0491
9 | TGCGAGTCTTGGGTTCTAACCTGTTGCGT (site TGCGAGTCTAC) | 2.87
10 | TGCGAGTCTTGGGTTCTAACCTGTTGCGT (site TTCGAGTCTCC) | 0.0688
11 | TGCGCAACTTGGGTTCTAACCTGTTGCCT (site TGCGCAACTAG) | 0.0344
12 | TGCGCAACTTGGGTTCTAACCTGTTGCCT (site TGCGCCACTAG) | 0.256
13 | TGCGCAACTTGGGTTCTAACCTGTTGCCT (site TGCGCGACTAG) | 0.0979
14 | TGCGCAACTTGGGTTCTAACCTGTTGCCT (site TGCGCTACTAG) | 0.0921
15 | TGCGCGACTTGGGTTCTAACCTGTTGCCT (site TGCGCAACTAG) | 0.0131
16 | TGCGCGACTTGGGTTCTAACCTGTTGCCT (site TGCGCCACTAG) | 0.0885
17 | TGCGCGACTTGGGTTCTAACCTGTTGCCT (site TGCGCGACTAG) | 0.032
18 | TGCGCGACTTGGGTTCTAACCTGTTGCCT (site TGCGCTACTAG) | 0.0869
19 | TGCGGAGCTTGGGTTCTAACCTGTTGCCT (site TGCCGACCTAG) | 0.163
20 | TGCGGAGCTTGGGTTCTAACCTGTTGCCT (site TGCGGAGCTAG) | 0.875
21 | TGCGGAGCTTGGGTTCTAACCTGTTGCGG (site AACGGAGCTCC) | 0.348
22 | TGCGGAGCTTGGGTTCTAACCTGTTGCGG (site TGCGGAGCTCC) | 1.81

Row | Sequence | recombinant barcode read abundance (log10)
23 | TGCGTGTCTTGGGTTCTAACCTGTTGCTG (site TACGTGTCTTA) | 0.0382
24 | TGCGTGTCTTGGGTTCTAACCTGTTGCTG (site TGCGTGTCTCA) | 1.6
25 | TGCTGGGCTTGGGTTCTAACCTGTTGCTG (site CTTCATTCTAG) | 0.225
26 | TGCTGGGCTTGGGTTCTAACCTGTTGCTG (site TGCTGGGCTCA) | 0.32
27 | TGCTGTCCTTGGGTTCTAACCTGTTGCCT (site TGCTGTACTAG) | 0.2
28 | TGCTGTCCTTGGGTTCTAACCTGTTGCCT (site TGCTGTCCTAG) | 0.111
29 | TGCTGTCCTTGGGTTCTAACCTGTTGCCT (site TGCTGTGCTAG) | 0.139
30 | TGCTGTCCTTGGGTTCTAACCTGTTGCCT (site TGCTGTTCTAG) | 0.0325
31 | TGCTGTCCTTGGGTTCTAACCTGTTGCTT (site CAGACGACTTG) | 0.127
32 | TGCTGTCCTTGGGTTCTAACCTGTTGCTT (site TGCTGTCCTAA) | 0.00473
33 | TGGAACCCTTGGGTTCTAACCTGTTGCGG (site TGGAACCCTCC) | 0.706
34 | TGGAACCCTTGGGTTCTAACCTGTTGCGG (site TGGCACCCTCC) | 0.0841
35 | TGGAGAGCTTGGGTTCTAACCTGTTGCAG (site ACCTTGCCTTA) | 0.0256
36 | TGGAGAGCTTGGGTTCTAACCTGTTGCAG (site TGGAGAGCTCT) | 2.3
37 | TGGAGCCCTTGGGTTCTAACCTGTTGCAC (site TGGAGCCCTAT) | 0.0355
38 | TGGAGCCCTTGGGTTCTAACCTGTTGCAC (site TGGAGCCCTCT) | 0.114
39 | TGGAGCCCTTGGGTTCTAACCTGTTGCAC (site TGGAGCCCTGT) | 0.253
40 | TGGAGCCCTTGGGTTCTAACCTGTTGCAC (site TGGAGCCCTTT) | 0.0674
41 | TGGAGTCCTTGGGTTCTAACCTGTTGCTT (site TGGAGCCCTAA) | 0.276
42 | TGGAGTCCTTGGGTTCTAACCTGTTGCTT (site TGGAGTCCTAA) | 0.605
43 | TGGATCACTTGGGTTCTAACCTGTTGCCT (site TGGAACACTAG) | 0.0491
